Reference: patent US11986471B2, “Compounds and methods of use” (Tango Therapeutics, Inc., priority 2018, dated 2024)
pIC50: −log10 of the molar value.

Legend:
PRMT5 [1] = target: T1, PRMT5 (Homo sapiens, UniProt O14744); experiment: PRMT5 IC50 assay in the presence of SAM as cofactor; type: biochemical
T1 construct: purchased Viva (custom protein)
Summary of the method: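 Ki conversion: SAM arm, Ki=IC50/1.5; MTA arm, Ki=IC50/13.5. No-cofactor arm reported as IC50 only. Selectivity expressed as Ki(SAM)/Ki(MTA).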

PRMT5 [2] = target: T1, PRMT5; experiment: PRMT5 IC50 assay with no cofactor; type: biochemical
Summary of the method: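 For the SAM-containing format, dividing IC50 by 1.5 yields Ki; for the MTA-containing format the divisor is 13.5. A third format without cofactor gives IC50 alone.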

PRMT5 [3] = target: T1, PRMT5; experiment: PRMT5 IC50 assay in the presence of MTA as cofactor; type: biochemical; conditions: for pIC50: PRMT5, MTA as cofactor
Summary of the method: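 IC50 values were measured against human PRMT5 with SAM, with MTA, or with no cofactor. Ki was derived from IC50 as Ki=IC50/1.5 with SAM and Ki=IC50/13.5 with MTA, and the Ki(SAM)/Ki(MTA) ratio was then taken.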

HAP1 MTAP-intact = experiment: SDMA in-cell western assay, HAP1 MTAP-intact cell line; type: cell-based; conditions: Homo sapiens
Summary of the method: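 Potency reflects cellular SDMA reduction, detected by in-cell western, in HAP1 cells with or without MTAP (endogenous expression versus null).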

HAP1 MTAP-deleted = experiment: SDMA in-cell western assay, HAP1 MTAP-deleted cell line; type: cell-based; conditions: for pIC50: Homo sapiens, HAP1 MTAP-deleted cell line; for MTAP Intact/Deleted Ratio: IC50 ratio HAP1 MTAP-intact / HAP1 MTAP-deleted
Summary of the method: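 These are IC50 values from an in-cell western measuring SDMA. The HAP1 cells used carry no MTAP, in contrast to the isogenic partner line with endogenous MTAP expression.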

[4] = ratio between Ki in the presence of SAM and Ki in the presence of MTA
[5] = ratio between the Ki in the presence of SAM and the Ki in the presence of MTA

T1 sequence (O14744 whole entry): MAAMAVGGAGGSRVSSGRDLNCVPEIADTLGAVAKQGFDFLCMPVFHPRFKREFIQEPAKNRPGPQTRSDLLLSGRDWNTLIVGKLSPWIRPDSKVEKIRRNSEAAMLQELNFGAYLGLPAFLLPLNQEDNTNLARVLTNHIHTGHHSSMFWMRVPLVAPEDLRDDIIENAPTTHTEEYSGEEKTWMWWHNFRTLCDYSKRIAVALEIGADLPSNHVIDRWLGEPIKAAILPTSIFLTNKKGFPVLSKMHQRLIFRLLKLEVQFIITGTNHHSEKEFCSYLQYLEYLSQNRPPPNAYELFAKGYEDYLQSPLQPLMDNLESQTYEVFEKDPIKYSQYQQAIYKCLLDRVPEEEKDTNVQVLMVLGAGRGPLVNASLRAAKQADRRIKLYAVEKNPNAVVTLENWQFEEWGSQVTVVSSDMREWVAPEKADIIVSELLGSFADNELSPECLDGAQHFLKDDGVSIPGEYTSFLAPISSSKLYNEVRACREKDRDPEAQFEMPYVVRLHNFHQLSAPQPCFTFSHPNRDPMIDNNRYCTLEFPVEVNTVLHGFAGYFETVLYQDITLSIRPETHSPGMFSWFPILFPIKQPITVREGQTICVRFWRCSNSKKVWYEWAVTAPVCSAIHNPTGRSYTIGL
T1 sequence (Q9BQA1 whole entry partner): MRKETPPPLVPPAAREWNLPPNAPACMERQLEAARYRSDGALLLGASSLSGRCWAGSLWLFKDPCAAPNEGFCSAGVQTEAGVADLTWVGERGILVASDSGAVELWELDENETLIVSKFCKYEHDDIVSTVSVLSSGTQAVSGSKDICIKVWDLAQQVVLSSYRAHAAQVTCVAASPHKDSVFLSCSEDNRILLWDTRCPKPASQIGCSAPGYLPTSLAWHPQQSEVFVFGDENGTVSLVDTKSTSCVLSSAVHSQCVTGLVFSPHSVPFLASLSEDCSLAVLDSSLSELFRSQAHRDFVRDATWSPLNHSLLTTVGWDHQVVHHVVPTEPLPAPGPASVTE

Row | Compound | pIC50 (PRMT5 [1]) | pIC50 (PRMT5 [2]) | pIC50 (PRMT5 [3]) | pIC50 (HAP1 MTAP-intact) | pIC50 (HAP1 MTAP-deleted) | pIC50 (PRMT5 [2]; read-out: No Co-factor IC50) | MTAP Intact/Deleted Ratio (HAP1 MTAP-deleted) | SAM/MTA Ratio (PRMT5 [3]; [4]) | SAM/MTA Ratio (PRMT5 [3]; [5])
1 | Cc1ncoc1COc1ccc2c(c1)CCN(C[C@@H](O)CNC(=O)c1cc(Nc3cccnc3)nc(N3[C@@H]4CC[C@H]3COC4)c1)C2 [Compound 603, 2-((1R,5S)-3-oxa-8-azabicyclo[3.2.1]octan-8-yl)-N—((S)-2-hydroxy-3-(6-((4-methyloxazol-5-yl)methoxy)-3,4-dihydroisoquinolin-2(1H)-yl)propyl)-6-(pyridin-3-ylamino)isonicotinamide] | 6.30 to 7.30 | 5.30 to 6.30 | > 7.30 | 5.00 to 6.00 | > 6.00 |  | B* (an IC50 ratio greater than or equal to 3 fold but lower than 10 fold between the IC50 in the HAP1 MTAP-intact cell line and the HAP1 MTAP-deleted cell line) |  | A (a Ki ratio greater than or equal to 10 fold between the Ki in the presence of SAM and the Ki in the presence of MTA)
2 | O=C(NC[C@H](O)CN1CCc2c(ccc(OCc3cnco3)c2Cl)C1)c1ccnc(N[C@H]2CC[C@H](C(F)(F)F)CC2)c1 [Compound 483, N—((S)-3-(5-chloro-6-(oxazol-5-ylmethoxy)-3N-dihydroisoquinolin-2(1H)-yl)-2-hydroxypropyl)-2-(((1RNS)-4-(trifluoromethyl)cyclohexy)amino)isonicotinamide] | 5.30 to 6.30 | ≤ 5.30 | 6.30 to 7.30 | ≤ 5.00 | 5.00 to 6.00 |  | C* (an IC50 ratio of less than 3 fold between the IC50 in the HAP1 MTAP-intact cell line and the HAP1 MTAP-deleted cell line) |  | A (a Ki ratio greater than or equal to 10 fold between the Ki in the presence of SAM and the Ki in the presence of MTA)
3 | Cc1c(OCc2cnco2)ccc2c1CCN(C[C@@H](O)CNC(=O)c1ccnc(NC3CCN(C(=O)C4CCC4)CC3)c1)C2 [Compound 494, (S)-2-((1-(cyclobutanecarbonyl)piperidin-4-yl)amino)-N-(2-hydroxy-3-(5-methyl-6-(oxazol-5-ylmethoxy)-3N-dihydroisoquinolin-2(1H)-yl)propyl)isonicotinamide] | 6.30 to 7.30 | 5.30 to 6.30 | 6.30 to 7.30 | ≤ 5.00 | 5.00 to 6.00 |  | B* (an IC50 ratio greater than or equal to 3 fold but lower than 10 fold between the IC50 in the HAP1 MTAP-intact cell line and the HAP1 MTAP-deleted cell line) |  | A (a Ki ratio greater than or equal to 10 fold between the Ki in the presence of SAM and the Ki in the presence of MTA)
4 | CC(C)(C)N1CCN(c2nc(NC3COC3)cc(C(=O)NC[C@H](O)CN3CCc4cc(OCc5cnco5)ccc4C3)n2)CC1 [Compound 373] | 6.30 to 7.30 |  | 6.30 to 7.30 | ≤ 5.00 | 5.00 to 6.00 | 5.30 to 6.30 | B* (an IC50 ratio greater than or equal to 3 fold but lower than 10 fold between the IC50 in the HAP1 MTAP-intact cell line and the HAP1 MTAP-deleted cell line) | A (a Ki ratio greater than or equal to 10 fold between the Ki in the presence of SAM and the Ki in the presence of MTA) | 
5 | CC(=O)N1CCC(Nc2ccnc(C(=O)NC[C@H](O)CN3CCc4cc(OCc5cnco5)ccc4C3)c2)CC1 [Compound 507, (S)-4-((1-acetylpiperidin-4-yl)amino)-N-(2-hydroxy-3-(6-(oxazol-5-ylmethoxy)-3,4-dihydroisoquinolin-2(1H)-yl)propyl)picolinamide] | 6.30 to 7.30 | 5.30 to 6.30 | 6.30 to 7.30 | ≤ 5.00 | 5.00 to 6.00 |  | B* (an IC50 ratio greater than or equal to 3 fold but lower than 10 fold between the IC50 in the HAP1 MTAP-intact cell line and the HAP1 MTAP-deleted cell line) |  | A (a Ki ratio greater than or equal to 10 fold between the Ki in the presence of SAM and the Ki in the presence of MTA)
6 | CC(=O)N1CCC(Nc2cc(C(=O)NC[C@H](O)CN3CCc4c(ccc(OCc5cnco5)c4Cl)C3)ccn2)CC1 [Compound 429] | 6.30 to 7.30 | 5.30 to 6.30 | 6.30 to 7.30 | ≤ 5.00 | 5.00 to 6.00 |  | B* (an IC50 ratio greater than or equal to 3 fold but lower than 10 fold between the IC50 in the HAP1 MTAP-intact cell line and the HAP1 MTAP-deleted cell line) |  | A (a Ki ratio greater than or equal to 10 fold between the Ki in the presence of SAM and the Ki in the presence of MTA)
7 | Cc1ncoc1COc1cc(F)c2c(c1)CCN(C[C@@H](O)CNC(=O)c1ccnc(NC3CCC3)c1)C2 [Compound 506, 2-(cyclobutylamino)-N-[(2S)-3-[8-fluoro-6-[(4-methyloxazol-5-yl)methoxy]-3,4-dihydro-1H-isoquinolin-2-yl]-2-hydroxy-propyl]pyridine-4-carboxamide] | 6.30 to 7.30 | ≤ 5.30 | 6.30 to 7.30 | ≤ 5.00 | 5.00 to 6.00 |  | B* (an IC50 ratio greater than or equal to 3 fold but lower than 10 fold between the IC50 in the HAP1 MTAP-intact cell line and the HAP1 MTAP-deleted cell line) |  | A (a Ki ratio greater than or equal to 10 fold between the Ki in the presence of SAM and the Ki in the presence of MTA)

Continued, in another order:

Row | pIC50 (PRMT5 [1]) | pIC50 (PRMT5 [2]) | pIC50 (PRMT5 [3]) | pIC50 (HAP1 MTAP-intact) | pIC50 (HAP1 MTAP-deleted) | pIC50 (PRMT5 [2]; read-out: No Co-factor IC50) | Compound | MTAP Intact/Deleted Ratio (HAP1 MTAP-deleted) | SAM/MTA Ratio (PRMT5 [3]; [4]) | SAM/MTA Ratio (PRMT5 [3]; [5])
8 | 6.30 to 7.30 | 5.30 to 6.30 | 6.30 to 7.30 | ≤ 5.00 | ≤ 5.00 |  | Cc1c(OCc2cnco2)ccc2c1CCN(C[C@@H](O)CNC(=O)c1ccc3c(c1)CCN(C(=O)c1ccc(Br)cc1)C3)C2 [Compound 546] | C* (an IC50 ratio of less than 3 fold between the IC50 in the HAP1 MTAP-intact cell line and the HAP1 MTAP-deleted cell line) |  | 
9 | 6.30 to 7.30 |  | > 7.30 | ≤ 5.00 | 5.00 to 6.00 | 5.30 to 6.30 | CN(C)CCOc1cc(C(=O)NC[C@H](O)CN2CCc3c(ccc(OCc4cnco4)c3Cl)C2)cc(NC2CCC2)n1 [Compound 329, (S)—N-(3-(5-chloro-6-(oxazol-5-ylmethoxy)-3N-dihydroisoquinolin-2(1H)-yl)-2-hydroxypropyl)-2-(cyclobutylamino)-6-(2-(dimethylamino)ethoxy)isonicotinamide] | B* (an IC50 ratio greater than or equal to 3 fold but lower than 10 fold between the IC50 in the HAP1 MTAP-intact cell line and the HAP1 MTAP-deleted cell line) | A (a Ki ratio greater than or equal to 10 fold between the Ki in the presence of SAM and the Ki in the presence of MTA) | 
10 | 6.30 to 7.30 |  | 6.30 to 7.30 | 5.00 to 6.00 | > 6.00 | 5.30 to 6.30 | Cc1ncoc1COc1ccc2c(c1)CCN(C[C@@H](O)CNC(=O)c1cc(NC3COC3)nc(N3CCN(C)CC3)n1)C2 [Compound 387] | B* (an IC50 ratio greater than or equal to 3 fold but lower than 10 fold between the IC50 in the HAP1 MTAP-intact cell line and the HAP1 MTAP-deleted cell line) | A (a Ki ratio greater than or equal to 10 fold between the Ki in the presence of SAM and the Ki in the presence of MTA) | 
11 | 6.30 to 7.30 | 5.30 to 6.30 | 6.30 to 7.30 | 5.00 to 6.00 | > 6.00 |  | CC(=O)N1CCN(c2cc(C(=O)NC[C@H](O)CN3CCc4c(ccc(OCc5ocnc5C)c4C)C3)cc(NC3CCC3)n2)CC1 [Compound 502, 2-(4-acetylpiperazin-1-yl)-6-(cyclobutylamino)-N-[(2S)-2-hydroxy-3-{5-methyl-6-[(4-methyl-1,3-oxazol-5-yl)methoxy]-1,2,3,4-tetrahydroisoquinolin-2-yl}propyl]pyridine-4-carboxamide] | A* (an IC50 ratio greater than or equal to 10 fold between the IC50 in the HAP1 MTAP-intact cell line and the HAP1 MTAP-deleted cell line) |  | A (a Ki ratio greater than or equal to 10 fold between the Ki in the presence of SAM and the Ki in the presence of MTA)
12 | 6.30 to 7.30 |  | 6.30 to 7.30 | ≤ 5.00 | > 6.00 | 5.30 to 6.30 | CC(=O)N1CC(Nc2cc(C(=O)NC[C@H](O)CN3CCc4c(ccc(OCc5cnco5)c4Cl)C3)nc(C(C)C)n2)C1 [Compound 342, (S)-6-((1-acetylazetidin-3-yl)amino)-N-(3-(5-chloro-6-(oxazol-5-ylmethoxy)-3,4-dihydroisoquinolin-2(1H)-yl)-2-hydroxypropyl)-2-isopropylpyrimidine-4-carboxamide] | A* (an IC50 ratio greater than or equal to 10 fold between the IC50 in the HAP1 MTAP-intact cell line and the HAP1 MTAP-deleted cell line) | A (a Ki ratio greater than or equal to 10 fold between the Ki in the presence of SAM and the Ki in the presence of MTA) | 
13 | 6.30 to 7.30 | 5.30 to 6.30 | 6.30 to 7.30 | ≤ 5.00 | > 6.00 |  | CCCC(=O)N1CCC(Nc2cc(C(=O)NC[C@H](O)CN3CCc4c(ccc(OCc5cnco5)c4Cl)C3)ccn2)CC1 [Compound 442, (S)-2-((1-butyrylpiperidin-4-yl)amino)-N-(3-(5-chloro-6-(oxazol-5-ylmethoxy)-3,4-dihydroisoquinolin-2(1H)-yl)-2-hydroxypropyl)isonicotinamide] | A* (an IC50 ratio greater than or equal to 10 fold between the IC50 in the HAP1 MTAP-intact cell line and the HAP1 MTAP-deleted cell line) |  | A (a Ki ratio greater than or equal to 10 fold between the Ki in the presence of SAM and the Ki in the presence of MTA)
